Laboratory results from patent US10065990B2, “Cyclic peptide compound, and preparation method, pharmaceutical composition and use thereof” (HANGZHOU GUANYU BIO-MEDICAL CO., LTD, priority 2013, dated 2018).
Where two headings read alike, the source gives them in different places.

Experiments:
Assay in all cases: MTT cancer cell growth inhibition
Format in all cases: cell-based
[1] = test system: BGC-823 (human gastric cancer cells); details: MTT
Method in brief: (§1)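 Following overnight attachment of 1500 cells per well, each line was exposed to test drug (final 10^−5 to 10^−10 M) for 72 h in a humidified 37° C., 5% CO2 incubator. Four hours with MTT, DMSO dissolution of formazan, and a 570 nm reading yielded viability data used for GI50.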

[2] = test system: Bel-7402 (human hepatoma cells); details: Homo sapiens, Bel-7402, 72 h, MTT, 72 hours incubation, Bel-7402 cells; read-out: GI50 Bel-7402
Method in brief: as §1

[3] = test system: DU145 (human prostate cancer cells); details: MTT
Method in brief: as §1

[4] = test system: HCC827 (human non-small cell lung cancer cells); details: Homo sapiens, HCC827, 72 h, MTT, 72 hours incubation, HCC827 cells; read-out: GI50 HCC827
Method in brief: as §1

[5] = test system: HT1080 (human fibrosarcoma cells); details: Homo sapiens, HT-1080, 72 h, MTT
Method in brief: as §1

[6] = test system: Hela (human cervical cancer cells); details: Homo sapiens, HeLa, 72 h, MTT
Method in brief: as §1

[7] = test system: Huh-7 (human hepatoma cells); details: Homo sapiens, Huh-7, 72 h, MTT, 72 hours incubation, Huh-7 cells; read-out: GI50 Huh-7
Method in brief: as §1

[8] = test system: K562 (human leukemia cells); details: MTT, 72 hours incubation, K562 cells, read-out: GI50 K562
Method in brief: as §1

[9] = test system: KBM-5 (human chronic myelogenous leukemia); details: Homo sapiens, KBM5, 72 h, MTT, 72 hours incubation, KBM-5 cells; read-out: GI50 KBM-5
Method in brief: as §1

[10] = test system: MDA-MB-231 (breast cancer cells); details: Homo sapiens, MDA-MB-231, 72 h, read-out: GI50 MDA-MB-231, MTT, 72 hours incubation, MDA-MB-231 cells
Method in brief: as §1

[11] = test system: N-87 (human gastric cancer cells); details: Homo sapiens, 72 h, MTT, 72 hours incubation, N-87 cells; read-out: GI50 N-87
Method in brief: as §1

[12] = test system: PANC-1 (Pac-1, human pancreatic cancer cells); details: Homo sapiens, PANC-1, 72 h, MTT
Method in brief: as §1

[13] = test system: SGC-7901 (human gastric cancer cells); details: Homo sapiens, SGC-7901, 72 h, MTT, 72 hours incubation, SGC-7901 cells; read-out: GI50 SGC-7901
Method in brief: as §1

[14] = test system: U937 (human leukemia cells); details: Homo sapiens, U-937, 72 h, MTT
Method in brief: as §1

[15] = test system: lncap (prostate cancer cells); details: Homo sapiens, LNCaP, 72 h, MTT
Method in brief: as §1

[16] = Homo sapiens, BGC-823, 72 h, 72 hours incubation, read-out: GI50 BG
[17] = Homo sapiens, DU-145, 72 h, 72 hours incubation, read-out: GI50 Du1
[18] = 72 hours incubation, read-out: GI50 HT1
[19] = 72 hours incubation, read-out: GI50 Hela
[20] = 72 hours incubation, read-out: GI50 PAN
[21] = 72 hours incubation, read-out: GI50 U93
[22] = 72 hours incubation, read-out: GI50 lnca
[23] = Homo sapiens, BGC-823, 72 h, BGC-823 cells, 72 hours incubation, read-out: GI50 BG
[24] = Homo sapiens, DU-145, 72 h, DU145 cells, 72 hours incubation, read-out: GI50 Du1
[25] = HT1080 cells, 72 hours incubation, read-out: GI50 HT1
[26] = PANC-1 cells, 72 hours incubation, read-out: GI50 PAN
[27] = U937 cells, 72 hours incubation, read-out: GI50 U93
[28] = lncap cells, 72 hours incubation, read-out: GI50 lnca
[29] = Homo sapiens, BGC-823, 72 h, 72 hours, present invention, read-out: GI50 BGC823, a
[30] = Homo sapiens, DU-145, 72 h, 72 hours, present invention, read-out: GI50 Du145, a
[31] = 72 hours, present invention, read-out: GI50 HT1080, a
[32] = 72 hours, present invention, read-out: GI50 Hela, a
[33] = 72 hours, present invention, read-out: GI50 PANC-1, a
[34] = 72 hours, present invention, read-out: GI50 U937, a
[35] = 72 hours, present invention, read-out: GI50 lncap, a

Row | GI50 [1, 16] [nM] | GI50 [2] [nM] | GI50 [3, 17] [nM] | GI50 [4] [nM] | GI50 [5, 18] [nM] | GI50 [6, 19] [nM] | GI50 [7] [nM] | GI50 ([8]; Homo sapiens, K562, 72 h) [nM] | GI50 [9] [nM] | GI50 [10] [nM] | GI50 [11] [nM] | GI50 [12, 20] [nM] | GI50 [13] [nM] | GI50 [14, 21] [nM] | GI50 [15, 22] [nM] | Compound | other results
1 | 60 | 43 | 30 | 43 | 40 | 80 | 24 | 39 | 81 | 24 | 61 | 40 | 49 | 20 | 20 | C/C=C1\NC(=O)c2ccc(F)c(n2)CNC(=O)C[C@@H](/C=C/CCSC(=O)CC)OC(=O)[C@H](C(C)C)NC1=O [Example 47] | 
2 | 60 | 83 | 10 | 83 | 80 | 90 | 31 | 16 | 91 | 31 | 64 | 80 | 46 | 20 | 30 | C/C=C1\NC(=O)c2ccc(F)c(n2)CNC(=O)C[C@@H](/C=C/CCSC(=O)CCCCCCC)OC(=O)[C@H](C)NC1=O [Example 62] | 
3 | 50 | 84 | 60 | 84 | 80 | 70 | 29 | 63 | 73 | 29 | 55 | 80 | 35 | 50 | 20 | C/C=C1\NC(=O)c2ccc(F)c(n2)CNC(=O)C[C@@H](/C=C/CCSC(=O)CCCCCCC)OC(=O)[C@H](Cc2ccccc2)NC1=O [Example 71] | 

Second part, the molecule before the results:

Row | Compound | GI50 [1, 16] [nM] | GI50 [2] [nM] | GI50 [3, 17] [nM] | GI50 [4] [nM] | GI50 [5, 18] [nM] | GI50 [6, 19] [nM] | GI50 [7] [nM] | GI50 ([8]; Homo sapiens, K562, 72 h) [nM] | GI50 [9] [nM] | GI50 [10] [nM] | GI50 [11] [nM] | GI50 [12, 20] [nM] | GI50 [13] [nM] | GI50 [14, 21] [nM] | GI50 [15, 22] [nM] | other results
4 | C/C=C1\NC(=O)c2nc(ccc2F)CNC(=O)C[C@@H](/C=C/CCSC(=O)CCCCCC)OC(=O)[C@H](C(C)C)NC1=O [Compound 33] | 60 | 83 | 10 | 83 | 80 | 80 | 31 | 16 | 83 | 31 | 61 | 80 | 52 | 20 | 30 | 
5 | C/C=C1\NC(=O)c2ccc(SC)c(n2)CNC(=O)C[C@@H](/C=C/CCSC(=O)CCCCCCC)OC(=O)[C@H](Cc2ccccc2)NC1=O [Compound 191] |  | 51 |  | 49 |  |  | 89 | 41 | 36 | 52 | 11 |  | 33 |  |  | GI50 [1, 23]: 100 nM; GI50 [3, 24]: 40 nM; GI50 [5, 25]: 50 nM; GI50 ([6]; Hela cells, 72 hours incubation, read-out: GI50 Hela): 130 nM; GI50 [12, 26]: 50 nM; GI50 [14, 27]: 30 nM; GI50 [15, 28]: 310 nM
6 | C/C=C1\NC(=O)c2cc(F)cc(n2)CNC(=O)C[C@@H](/C=C/CCSC(C)=O)OC(=O)[C@H](C(C)C)NC1=O [Compound 94] |  | 84 |  | 84 | 80 | 60 | 33 |  | 61 | 33 | 37 | 80 | 41 | 30 | 30 | GI50 ([1]; 72 hours incubation, read-out: GI50 BG): 30 nM; GI50 ([3]; 72 hours incubation, read-out: GI50 Du1): 30 nM; GI50 [8]: 39 nM
7 | C/C=C1\NC(=O)c2nc(ccc2F)CNC(=O)C[C@@H](/C=C/CCSC(=O)CCCCC)OC(=O)[C@H](C(C)C)NC1=O [Compound 36] | 30 | 62 | 20 | 62 | 60 | 60 | 43 | 29 | 61 | 43 | 39 | 60 | 47 | 20 | 40 | 
8 | C/C=C1\NC(=O)c2cccc(n2)CNC(=O)C[C@@H](/C=C/CCSC(=O)CCCCCCC)OC(=O)[C@H](C)NC1=O [Compound 11] | 410 | 76 | 30 | 23 | 140 | 120 | 43 | 63 | 62 | 86 | 37 | 60 | 35 | 30 | 20 | GI50 [1, 29]: 410 nM; GI50 [3, 30]: 33 nM; GI50 [5, 31]: 140 nM; GI50 [6, 32]: 120 nM; GI50 [12, 33]: 60 nM; GI50 [14, 34]: 35 nM; GI50 [15, 35]: 25 nM
9 | C=C1NC(=O)c2cccc(n2)CNC(=O)C[C@@H](/C=C/CCSC(=O)CCCCCCC)OC(=O)[C@H](C(C)C)NC1=O [Compound 244] |  | 29 |  | 28 |  |  | 92 | 53 | 23 | 35 | 83 |  | 36 |  |  | GI50 [1, 23]: 390 nM; GI50 [1, 29]: 390 nM; GI50 [3, 24]: 950 nM; GI50 [3, 30]: 950 nM; GI50 [5, 25]: 760 nM; GI50 [5, 31]: 760 nM; GI50 [6, 32]: 8 nM; GI50 [12, 33]: 770 nM; GI50 [12, 26]: 770 nM; GI50 [14, 34]: 890 nM; GI50 [14, 27]: 890 nM; GI50 [15, 35]: 990 nM; GI50 [15, 28]: 990 nM
10 | C/C=C1\NC(=O)c2nc(ccc2F)CNC(=O)C[C@@H](/C=C/CCSC(=O)CC)OC(=O)[C@H](C(C)C)NC1=O [Example 45] | 50 | 61 | 30 | 61 | 60 | 90 | 37 | 33 | 94 | 37 | 67 | 60 | 43 | 30 | 30 | 
11 | C/C=C1\NC(=O)c2cc(F)cc(n2)CCNC(=O)C[C@@H](/C=C/CCSC(C)=O)OC(=O)[C@H](C(C)C)NC1=O [Compound 104] | 10 | 57 | 40 | 49 | 90 | 30 | 89 | 33 | 79 | 20 | 96 | 90 | 26 | 50 | 30 | 
